Experimental findings from patent publication US20200032249A1, “LABELING, ISOLATION, & ANALYSIS OF RNA FROM RARE CELL POPULATIONS” (priority 2017, published 2020) are described below.

This series has as its system MDA231 cells. Put plainly: stress granule formation by G3BP immunostaining. It is filed as cell-based. As to conditions: for treatment time after which cells started to form stress granules: human. The procedure: FIG. 2a-b. Flura-tagging has minimal cytotoxicity. FIG. 2a—Effect of Flura-tagging on stress granule formation. MDA231 cells were treated with 5-FC for the indicated times, and the formation of stress granules was detected by G3BP immunostaining. Control cells were either treated with water or sodium arsenite (Arsenite) for one hour. Arrows indicate stress granules (n=3). Scale bar=20 μM. FIG. 2b—Effect of Flura-tagging on transcription. RNA expression in control cells was compared to CD/UPRT-expressing cells treated with the indicated concentrations of 5-FC for 4 h or 12 h. Each dot represents a gene, with the outer/lighter gray dots indicating genes showing more than 2-fold differential expression, as determined by DESeq2 (n=2). The dotted line represents the four-fold cutoff mark.
5-FU is extensively used as a chemotherapeutic agent for the treatment of solid tumors, based on its ability to induce cancer cell death by inhibiting thymidylate synthase and by causing DNA and RNA damage (12-14). It was therefore crucial to test whether our 5-FU-tagging method, which is based on low concentrations of 5-FC and short incubation time periods, has significant cytotoxic effects under our experimental conditions. CD/UPRT-expressing cells were treated with 5-FC at concentrations of up to 250 μM for up to 12 h (“Flura-tagged” cells), and the effects of this treatment on RNA damage response and transcriptional regulation were investigated.
A key feature of the RNA damage response is the formation of stress granules (15). Ras GTPase-activating protein-binding protein 1 (G3BP), a key component of stress granules, forms distinct foci during stress granule formation (12). We determined the dose- and time-dependent effect of 5-FC treatment on stress granule formation by immunostaining of the cells with anti-G3BP antibody. […] The 5-FC-treated cells started to form stress granules only after 24 h of treatment with 1 mM 5-FC, a concentration four times higher than the maximal concentration of 5-FC used for Flura-tagging, or after 48 h of 5-FC treatment at lower concentrations (FIG. 2a).
Human embryonic kidney transformed with […] (293T) and human breast cancer MDA-MB-231 (MDA231) cells were cultured in DMEM High Glucose medium (Wheaton) supplemented with 10% Fetal Bovine Serum (Clontech, Catalog number 631106) supplemented with 2 mM L-Glutamine. All cell lines have been routinely tested for mycoplasma contamination. For the induction of CD or CD and UPRT, cells were treated with 1 μg/ml doxycycline for 24 h. For Fluorouracil tagging, cells were treated with 250 μM of 5-FC or 5-FU unless indicated. Where indicated, 125 μM thymine was added together with 5-FC. […]

Each structure is given as a SMILES string.

Turning to `Nc1nc(=O)[nH]cc1F` [5-FC, 5-fluorocytosine], the “stress granules after 12 h” value is reported as “did not contain stress granules” and the “treatment time after which cells started to form stress granules” value was found to be 48 h. For the same compound, the “treatment time after which cells started to form stress granules” value (1 mM) was 24 h.
